# Legend:
# [1] = test system: wild oat; assay: Test Example 5: herbicidal effect by foliage application, plastic box (Table 20, symbol I); type: in vivo, wild oat (Avena fatua); details: amount of applied herbicide 320 g/ha; foliage application after 14-day growth; evaluated three weeks after application
# Summary of the method: (§1)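 Sow seeds spot-wise in sterilized diluvial soil; cover with ~1.5 cm soil. Grow 14 days in greenhouse, 25° C. to 30° C. Spray foliage with emulsion diluted to predetermined amount. Rate effect after 3 weeks.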
# [2] = test system: southern crabgrass; assay: Test Example 5: herbicidal effect by foliage application, plastic box (Table 20, symbol F); type: in vivo, southern crabgrass (Digitaria ciliaris); details: amount of applied herbicide 320 g/ha; foliage application after 14-day growth; evaluated three weeks after application
# Summary of the method: as §1
# [3] = test system: southern crabgrass; assay: Test Example 4: herbicidal effect by soil treatment (Table 19, symbol F); type: in vivo, southern crabgrass (Digitaria ciliaris); details: amount of applied herbicide 320 g/ha
# Summary of the method: (§2)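 Applied as a water-diluted emulsion, the compound was sprayed onto soil covering newly sown seeds. Evaluation came three weeks after application, in a greenhouse held at 25° C. to 30° C.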
# [4] = test system: chickweed; assay: Test Example 4: herbicidal effect by soil treatment (Table 19, symbol P); type: in vivo, common chickweed (Stellaria media); details: amount of applied herbicide 320 g/ha
# Summary of the method: as §2
# [5] = test system: lambsquarters; assay: Test Example 4: herbicidal effect by soil treatment (Table 19, symbol O); type: in vivo, lambsquarters (Chenopodium album); details: amount of applied herbicide 320 g/ha
# Summary of the method: as §2
# [6] = test system: persian speedwell; assay: Test Example 4: herbicidal effect by soil treatment (Table 19, symbol R); type: in vivo, Persian speedwell (Veronica persica); details: amount of applied herbicide 320 g/ha
# Summary of the method: as §2
# [7] = test system: rice flat sedge; assay: Test Example 3: herbicidal effect by foliage application, Wagner pot (Table 18, symbol E); type: in vivo, rice flat sedge (Cyperus iria); details: 320 g/ha
# Summary of the method: (§3)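 Plants were sown in alluvial soil held under 0.1–0.5 cm standing water and grown 14 days in a greenhouse at 25–30 °C. An emulsifiable formulation, water-diluted to the set dose, was then sprayed onto the foliage, and effects were scored three weeks later using previously defined criteria.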
# [8] = test system: Italian ryegrass; assay: Test Example 4: herbicidal effect by soil treatment (Table 19, symbol K); type: in vivo, Italian ryegrass (Lolium multiflorum); details: amount of applied herbicide 320 g/ha
# Summary of the method: as §2
# [9] = test system: blackgrass; assay: Test Example 4: herbicidal effect by soil treatment (Table 19, symbol J); type: in vivo, blackgrass (Alopecurus myosuroides); details: amount of applied herbicide 320 g/ha
# Summary of the method: as §2
# [10] = test system: velvetleaf; assay: Test Example 5: herbicidal effect by foliage application, plastic box (Table 20, symbol M); type: in vivo, velvetleaf (Abutilon theophrasti); details: amount of applied herbicide 320 g/ha; foliage application after 14-day growth; evaluated three weeks after application
# Summary of the method: as §1
# [11] = test system: Chinese sprangletop; assay: Test Example 3: herbicidal effect by foliage application, Wagner pot (Table 18, symbol D); type: in vivo, chinese sprangletop (Leptochloa chinensis); details: 320 g/ha
# Summary of the method: as §3
# [12] = test system: barnyard grass; assay: Test Example 4: herbicidal effect by soil treatment (Table 19, symbol H); type: in vivo, barnyard grass (Echinochloa crus-galli); details: amount of applied herbicide 320 g/ha
# Summary of the method: as §2
# [13] = test system: redroot pigweed; assay: Test Example 4: herbicidal effect by soil treatment (Table 19, symbol N); type: in vivo, redroot pigweed (Amaranthus retroflexus); details: amount of applied herbicide 320 g/ha
# Summary of the method: as §2
# [14] = test system: windgrass; assay: Test Example 4: herbicidal effect by soil treatment (Table 19, symbol L); type: in vivo, windgrass (Apera spica-venti); details: amount of applied herbicide 320 g/ha
# Summary of the method: as §2
# [15] = test system: barnyard grass; assay: Test Example 3: herbicidal effect by foliage application, Wagner pot (Table 18, symbol H); type: in vivo, barnyard grass (Echinochloa crus-galli); details: 320 g/ha
# Summary of the method: as §3
# [16] = test system: persian speedwell; assay: Test Example 5: herbicidal effect by foliage application, plastic box (Table 20, symbol R); type: in vivo, Persian speedwell (Veronica persica); details: amount of applied herbicide 320 g/ha; foliage application after 14-day growth; evaluated three weeks after application
# Summary of the method: as §1
# [17] = test system: windgrass; assay: Test Example 5: herbicidal effect by foliage application, plastic box (Table 20, symbol L); type: in vivo, windgrass (Apera spica-venti); details: amount of applied herbicide 320 g/ha; foliage application after 14-day growth; evaluated three weeks after application
# Summary of the method: as §1
# [18] = test system: green foxtail; assay: Test Example 4: herbicidal effect by soil treatment (Table 19, symbol G); type: in vivo, green foxtail (Setaria viridis); details: amount of applied herbicide 320 g/ha
# Summary of the method: as §2
# [19] = test system: velvetleaf; assay: Test Example 4: herbicidal effect by soil treatment (Table 19, symbol M); type: in vivo, velvetleaf (Abutilon theophrasti); details: amount of applied herbicide 320 g/ha
# Summary of the method: as §2
# [20] = test system: lambsquarters; assay: Test Example 5: herbicidal effect by foliage application, plastic box (Table 20, symbol O); type: in vivo, lambsquarters (Chenopodium album); details: amount of applied herbicide 320 g/ha; foliage application after 14-day growth; evaluated three weeks after application
# Summary of the method: as §1
# [21] = test system: chickweed; assay: Test Example 5: herbicidal effect by foliage application, plastic box (Table 20, symbol P); type: in vivo, common chickweed (Stellaria media); details: amount of applied herbicide 320 g/ha; foliage application after 14-day growth; evaluated three weeks after application
# Summary of the method: as §1
# [22] = test system: Italian ryegrass; assay: Test Example 5: herbicidal effect by foliage application, plastic box (Table 20, symbol K); type: in vivo, Italian ryegrass (Lolium multiflorum); details: amount of applied herbicide 320 g/ha; foliage application after 14-day growth; evaluated three weeks after application
# Summary of the method: as §1
# [23] = test system: barnyard grass; assay: Test Example 5: herbicidal effect by foliage application, plastic box (Table 20, symbol H); type: in vivo, barnyard grass (Echinochloa crus-galli); details: amount of applied herbicide 320 g/ha; foliage application after 14-day growth; evaluated three weeks after application
# Summary of the method: as §1
# [24] = test system: Japanese bulrush; assay: Test Example 1: herbicidal activity, application before weed generation under submerged conditions (Table 16, symbol B); type: in vivo, Japanese bulrush (Schoenoplectus juncoides); details: amount of applied herbicide 320 g/ha
# Summary of the method: (§4)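 Emulsion formulation, water-diluted to set dose, was put onto the flooded surface (4 cm depth, alluvial soil) the same day weeds were sown and 2.5-leaf rice transplanted. After 3 weeks at 25-30 °C under glass, each species was rated 0 (≤5% kill) to 5 (≥90% kill).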
# [25] = test system: late watergrass; assay: Test Example 1: herbicidal activity, application before weed generation under submerged conditions (Table 16, symbol A); type: in vivo, late watergrass (Echinochloa oryzicola); details: amount of applied herbicide 320 g/ha
# Summary of the method: as §4
# [26] = test system: oval-leafed pondweed; assay: Test Example 1: herbicidal activity, application before weed generation under submerged conditions (Table 16, symbol C); type: in vivo, oval-leafed pondweed (Monochoria vaginalis); details: amount of applied herbicide 320 g/ha
# Summary of the method: as §4
# [27] = test system: wild oat; assay: Test Example 4: herbicidal effect by soil treatment (Table 19, symbol I); type: in vivo, wild oat (Avena fatua); details: amount of applied herbicide 320 g/ha
# Summary of the method: as §2
# [28] = test system: redroot pigweed; assay: Test Example 5: herbicidal effect by foliage application, plastic box (Table 20, symbol N); type: in vivo, redroot pigweed (Amaranthus retroflexus); details: amount of applied herbicide 320 g/ha; foliage application after 14-day growth; evaluated three weeks after application
# Summary of the method: as §1
# [29] = test system: green foxtail; assay: Test Example 5: herbicidal effect by foliage application, plastic box (Table 20, symbol G); type: in vivo, green foxtail (Setaria viridis); details: amount of applied herbicide 320 g/ha; foliage application after 14-day growth; evaluated three weeks after application
# Summary of the method: as §1
# [30] = test system: blackgrass; assay: Test Example 5: herbicidal effect by foliage application, plastic box (Table 20, symbol J); type: in vivo, blackgrass (Alopecurus myosuroides); details: amount of applied herbicide 320 g/ha; foliage application after 14-day growth; evaluated three weeks after application
# Summary of the method: as §1
smiles,measurement,setting,value
CCCC(=O)Oc1c(C)nn(C)c(=O)c1-c1c(-c2ccc(OC(F)(F)F)cc2)sc2c(Cl)cccc12 [4-079],"Herbicidal effect by foliage application, I: wild oat",[1],0 (Herbicidal rate of 5% or less (almost no effect))
same,"Herbicidal effect by foliage application, F: southern crabgrass",[2],0 (Herbicidal rate of 5% or less (almost no effect))
same,"Herbicidal effect by soil treatment, F: southern crabgrass",[3],0 (Herbicidal rate of 5% or less (almost no effect))
same,"Herbicidal effect by soil treatment, P: chickweed",[4],0 (Herbicidal rate of 5% or less (almost no effect))
same,"Herbicidal effect by soil treatment, O: lambsquarters",[5],0 (Herbicidal rate of 5% or less (almost no effect))
same,"Herbicidal effect by soil treatment, R: persian speedwell",[6],3 (Herbicidal rate of 40% or more and less than 70%)
same,herbicidal effect on rice flat sedge (E),[7],2 (Herbicidal rate of 20% or more and less than 40%)
same,"Herbicidal effect by soil treatment, K: Italian ryegrass",[8],0 (Herbicidal rate of 5% or less (almost no effect))
same,"Herbicidal effect by soil treatment, J: blackgrass",[9],0 (Herbicidal rate of 5% or less (almost no effect))
same,"Herbicidal effect by foliage application, M: velvetleaf",[10],4 (Herbicidal rate of 70% or more and less than 90%)
same,herbicidal effect on Chinese sprangletop (D),[11],2 (Herbicidal rate of 20% or more and less than 40%)
same,"Herbicidal effect by soil treatment, H: barnyard grass",[12],0 (Herbicidal rate of 5% or less (almost no effect))
same,"Herbicidal effect by soil treatment, N: redroot pigweed",[13],2 (Herbicidal rate of 20% or more and less than 40%)
same,"Herbicidal effect by soil treatment, L: windgrass",[14],0 (Herbicidal rate of 5% or less (almost no effect))
same,herbicidal effect on barnyard grass (H),[15],2 (Herbicidal rate of 20% or more and less than 40%)
same,"Herbicidal effect by foliage application, R: persian speedwell",[16],5 (Herbicidal rate of 90% or more (almost completely withered))
same,"Herbicidal effect by foliage application, L: windgrass",[17],3 (Herbicidal rate of 40% or more and less than 70%)
same,"Herbicidal effect by soil treatment, G: green foxtail",[18],0 (Herbicidal rate of 5% or less (almost no effect))
same,"Herbicidal effect by soil treatment, M: velvetleaf",[19],0 (Herbicidal rate of 5% or less (almost no effect))
same,"Herbicidal effect by foliage application, O: lambsquarters",[20],3 (Herbicidal rate of 40% or more and less than 70%)
same,"Herbicidal effect by foliage application, P: chickweed",[21],5 (Herbicidal rate of 90% or more (almost completely withered))
same,"Herbicidal effect by foliage application, K: Italian ryegrass",[22],0 (Herbicidal rate of 5% or less (almost no effect))
same,"Herbicidal effect by foliage application, H: barnyard grass",[23],0 (Herbicidal rate of 5% or less (almost no effect))
same,"Herbicidal effect, B: Japanese bulrush",[24],0 (Herbicidal rate of 5% or less (almost no effect))
same,"Herbicidal effect, A: late watergrass",[25],2 (Herbicidal rate of 20% or more and less than 40%)
same,"Herbicidal effect, C: oval-leafed pondweed",[26],0 (Herbicidal rate of 5% or less (almost no effect))
same,"Herbicidal effect by soil treatment, I: wild oat",[27],0 (Herbicidal rate of 5% or less (almost no effect))
same,"Herbicidal effect by foliage application, N: redroot pigweed",[28],3 (Herbicidal rate of 40% or more and less than 70%)
same,"Herbicidal effect by foliage application, G: green foxtail",[29],0 (Herbicidal rate of 5% or less (almost no effect))
same,"Herbicidal effect by foliage application, J: blackgrass",[30],0 (Herbicidal rate of 5% or less (almost no effect))

# — patent US20230085307A1, “PYRIDAZINONE COMPOUND AND HERBICIDE” (NISSAN CHEMICAL CORPORATION, priority 2019, published 2023)
